Experimental data: PubChem BioAssay (NCI)
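Values below derive from 48-hour exposures of cells grown in 96-well plates, with endpoints linearly interpolated between the two concentrations bracketing the appropriate inhibition level. TGI is the concentration that stops growth completely.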

Assays:
Assay in all cases: NCI anticancer screen, dose series, 48 h
SW-620 colon = test system: SW-620 colon
SK-MEL-2 melanoma = test system: SK-MEL-2 melanoma
SNB-19 CNS = test system: SNB-19 CNS
U251 CNS = test system: U251 CNS
SF-268 CNS = test system: SF-268 CNS
RPMI-8226 leukemia = test system: RPMI-8226 leukemia
CAKI-1 renal = test system: CAKI-1 renal
HOP-92 NSCLC = test system: HOP-92 NSCLC
COLO 205 colon = test system: COLO 205 colon
HCC-2998 colon = test system: HCC-2998 colon
UACC-62 melanoma = test system: UACC-62 melanoma
K-562 leukemia = test system: K-562 leukemia
HCT-116 colon = test system: HCT-116 colon
SNB-75 CNS = test system: SNB-75 CNS
NCI-H460 lung = test system: NCI-H460 lung
SN12C renal = test system: SN12C renal
SF-295 CNS = test system: SF-295 CNS
SF-539 CNS = test system: SF-539 CNS
HOP-62 NSCLC = test system: HOP-62 NSCLC
A498 renal = test system: A498 renal

| SMILES | TGI (SW-620 colon) | TGI (SK-MEL-2 melanoma) | TGI (SNB-19 CNS) | TGI (U251 CNS) | TGI (SF-268 CNS) | TGI (RPMI-8226 leukemia) | TGI (CAKI-1 renal) | TGI (HOP-92 NSCLC) | TGI (COLO 205 colon) | TGI (HCC-2998 colon) | TGI (UACC-62 melanoma) | TGI (K-562 leukemia) | TGI (HCT-116 colon) | TGI (SNB-75 CNS) | TGI (NCI-H460 lung) | TGI (SN12C renal) | TGI (SF-295 CNS) | TGI (SF-539 CNS) | TGI (HOP-62 NSCLC) | TGI (A498 renal) |
| --- | --- | --- | --- | --- | --- | --- | --- | --- | --- | --- | --- | --- | --- | --- | --- | --- | --- | --- | --- | --- |
| CCOC(=O)NC(Nc1ncccn1)(C(=O)OCC)C(F)(F)F (stereo unspecified) | > 100 µM | > 100 µM | > 100 µM | > 100 µM | > 100 µM | > 100 µM | > 100 µM | > 100 µM | > 100 µM | > 100 µM | > 100 µM | > 100 µM | > 100 µM | > 100 µM | > 100 µM | > 100 µM | > 100 µM | > 100 µM |  |  |
| CSc1nc(NC2OCC(O)C(O)C2O)c(N)c(=O)[nH]1 (stereo unspecified) | > 100 µM | > 100 µM | > 100 µM | > 100 µM | > 100 µM | > 100 µM |  | > 100 µM | > 100 µM | > 100 µM | > 100 µM | > 100 µM | > 100 µM | > 100 µM | > 100 µM | > 100 µM | > 100 µM | > 100 µM | > 100 µM | > 100 µM |
| Cc1ccc2c(c1)C(=O)N(N(C)C)CC(=O)N2 | > 100 µM | > 100 µM | > 100 µM | > 100 µM | > 100 µM | > 100 µM | > 100 µM | > 100 µM | > 100 µM | > 100 µM | > 100 µM | > 100 µM | > 100 µM | > 100 µM | > 100 µM |  | > 100 µM | > 100 µM | > 100 µM | > 100 µM |
| Cc1cc(C)n(-c2nsc3ccccc23)n1 | > 100 µM | > 100 µM | > 100 µM | > 100 µM | > 100 µM | > 100 µM |  | > 100 µM | > 100 µM | > 100 µM | > 100 µM | > 100 µM | > 100 µM | 98.3 µM | > 100 µM | > 100 µM |  | > 100 µM | > 100 µM |  |
| CC(C)(C)[Si](C)(C)OCC1OC(n2cnc3c(N)ncnc32)CC1O (stereo unspecified) | > 100 µM | > 100 µM | > 100 µM | > 100 µM |  | > 100 µM | > 100 µM |  | > 100 µM |  | > 100 µM | > 100 µM | > 100 µM | > 100 µM | > 100 µM | > 100 µM | > 100 µM |  | > 100 µM | > 100 µM |
| N#CN=[N+]([O-])c1ccc(C(=O)O)cc1 | 36.6 µM | 33.6 µM | 29.8 µM | 33 µM | 35.5 µM | 35.3 µM |  | 40.4 µM |  | > 100 µM | 31.4 µM | 38.4 µM |  | 38.9 µM | > 100 µM |  | > 100 µM | 32.4 µM | 30.7 µM |  |
| C/C(N=NS(=O)(=O)c1ccccc1)=C1\C=CC=CN1O | > 100 µM |  | > 100 µM | > 100 µM | > 100 µM | > 100 µM | > 100 µM | > 100 µM |  | > 100 µM | > 100 µM |  | > 100 µM | > 100 µM | > 100 µM | > 100 µM | > 100 µM | > 100 µM | > 100 µM | > 100 µM |
| CC1CCC2(O)C3(C)CC4(O)OC2(C1O)C1(O)C3(O)C(OC(=O)c2ccc[nH]2)C(O)(C(C)C)C41C (stereo unspecified) | > 100 µM | > 100 µM | > 100 µM | > 100 µM | > 31.6 µM | > 100 µM | > 100 µM | > 100 µM | > 100 µM | > 100 µM | > 100 µM | > 100 µM | > 100 µM | > 100 µM | > 100 µM | > 100 µM | > 100 µM | > 100 µM | > 100 µM | > 100 µM |
| COc1ccc2nc3cc(Cl)ccc3c(NCCNC(=O)Cn3c(=O)n(C)c(=O)c4c3nc3c(c(=O)n(C)c(=O)n3C)[n+]4[O-])c2c1 | > 71.7 µM | > 100 µM | > 77.9 µM | 58.9 µM | 60.8 µM | > 100 µM | > 100 µM | > 74.7 µM | > 100 µM | > 100 µM | > 52.9 µM | > 100 µM | > 100 µM | 92.2 µM | > 100 µM | > 100 µM | > 100 µM | > 65 µM | 50.8 µM | 98.8 µM |
